Measured values from patent US20220117938A1, “COMBINATON THERAPY WITH A DON PRODRUG AND AN IMMUNE CHECKPOINT INHIBITOR” (DRACEN PHARMACEUTICALS, INC., priority 2019, published 2022).

Test system: MC-38 tumors
Assay: Anti-tumor efficacy of Compound 1 with and without anti-PD-1 in the subcutaneous MC-38 model (Example 2D)
Assay type: in vivo, Mus musculus
Conditions: for MST: endpoint tumor volume 2000 mm^3; for T/C / TGI: day 16
Method: Female C57BL/6 mice were inoculated subcutaneously at right flank with MC-38 cells for tumor development. Five days after tumor inoculation, 48 mice with tumor size ranging from 50-100 mm^3 (average tumor size 72 mm^3) were selected and assigned into six groups using stratified randomization with 8 mice per group based upon their tumor volumes. The treatments were started from the day of randomization (defined as D0), Group 1 was treated with Vehicle (Tween 80:Ethanol:Saline—5:5:90 v/v/v), s.c., qd×14, Group 2 was treated with Anti-PD-1 10 mg/kg i.p. q4d×4, Group 3 was treated with Compound 1 0.3 mg/kg s.c. q.d.×14, Group 4 was treated with Compound 1 0.3 mg/kg s.c. q.d.×14+Anti-PD-1 10 mg/kg i.p. q4d×4, Group 5 was treated with Compound 1 1 mg/kg s.c. q.d.×14, Group 6 was treated with Compound 1 1 mg/kg s.c. q.d.×14+Anti-PD-1 10 mg/kg i.p. q4d×4. The tumor sizes were measured three times per week during the treatment. The entire study was terminated on D37 after start of the treatment.
Animal Species: Mus musculus; Strain: […]; Age: 6-8 weeks; Sex: female; Body weight (at treatment start): 18-22 g.
The MC-38 tumor cells were maintained in vitro as a monolayer culture in DMEM medium supplemented with 10% heat inactivated fetal bovine serum and 100 μg/mL penicillin streptomycin at 37° C. in an atmosphere of 5% CO2 in air. The tumor cells were routinely subcultured twice weekly by trypsin-EDTA treatment. The cells growing to a confluency around 70%-80% were harvested and counted for tumor inoculation. The cultured MC-38 were harvested, re-suspended in base medium at a density of 1×10^7 cells/mL with viability >90%. Each mouse was inoculated subcutaneously at the right flank with 1×10^6 cells in 0.1 ml base medium for tumor development.
The treatments were started on day 5 after tumor inoculation when the tumor size reached 50-100 mm^3 (average tumor size 72 mm^3). Each group consisted of 8 tumor bearing mice.
The testing article was administrated at the dosing volume indicated to the mice according to the predetermined regimen as shown Table 2D-1. Testing article formulations were prepared according to standard procedures. Details regarding tumor measurements and endpoints, and statistical analysis are provided in EXAMPLE 3.
Tumor sizes were measured three times a week in two dimensions using a caliper, and the volume expressed in mm^3 using the formula: V=0.5 a×b^2 where a and b are the long and short diameters of the tumor, respectively. The tumor sizes were then used for the calculations of both tumor growth inhibition (TGI) and T/C values.
TGI is calculated for each group using the formula: […]
TVTreatment_DayN is the average tumor volume of a treatment group on a given day, TVTreatment_Day0 is the average tumor volume of the treatment group on the first day of treatment, TVVehicle_DayN is the average tumor volume of the vehicle control group on a given day, and TVVehicle_Day0 is the average tumor volume of the vehicle group on the first day of treatment.
The T/C value (in percent) is an indication of antitumor effectiveness, T/C (%)=RTVTreatment/RTVControl×100% (RTVTreatment: the mean RTV of the treatment group; RTVControl: the mean RTV of the vehicle treated group). RTV (relative tumor volume)=TVDayN/TVDay0. TVDayN and TVDay0 is the tumor volume on day N and Day 0 respectively. T/C (%)≤42% is considered as significant antitumor activity and <10% is considered as highly significant antitumor activity by the National Cancer Institute criteria.
Animal survival curve: When an individual animal reached to the termination endpoint (TV>2000 mm^3), the mouse was euthanized. The time from treatment initiation to the termination was deemed as its survival time. Survival curve was plotted by Kaplan-Meier method. Median survival time (MST) was calculated for each group. Increase of life span (ILS) was calculated according to the following formula: […]
ILS (%)>25% is considered as a biologically significant survival benefit. […]

[1] = Compound 1 0.3 mg/kg qd x 14, s.c.

Structure (SMILES): CC(=O)N[C@@H](Cc1c[nH]c2ccccc12)C(=O)N[C@@H](CCC(=O)C=[N+]=[N-])C(=O)OC(C)C [Compound 1, Isopropyl (S)-2-((S)-2-acetamido-3-(1H-indol-3-yl)propanamido)-6-diazo-5-oxohexanoate]
- ILS [1]: 52.6%
- MST [1]: 29 days
- ILS (Compound 1 1 mg/kg qd x 14, sc): 65.8%
- MST (Compound 1 1 mg/kg qd x 14, sc): 31.5 days
- RTV at day 16 (Cpd. 1 0.3 mg/kg qd x 14, s.c.): 2.73 ± 0.37
- RTV at day 16 (Cpd. 1 1 mg/kg qd x 14, sc): 0.40 ± 0.11
- T/C (Cpd. 1 0.3 mg/kg qd x 14, s.c.): 14.06%
- TGI (Cpd. 1 0.3 mg/kg qd x 14, s.c.): 90.53%
- T/C (Cpd. 1 1 mg/kg qd x 14, sc): 2.08%
- TGI (Cpd. 1 1 mg/kg qd x 14, sc): 103.26%
